Results published in patent US20090018150A1, “5-Ht2b Receptor Antagonists” (ASTERAND UK LIMITED, priority 2003, published 2009).

Experiments:
[1] = target: T1, human cloned 5-HT2B receptors (Homo sapiens, UniProt P41595); assay: Human cloned 5-HT2B receptor binding assay; settings: [3H]LSD (1 nM) displacement, membranes of CHO-K1 cells expressing cloned 5-HT2B receptor; read-out: 5-HT2B pKi (converted)
T1 construct: expressed in transfected cells; host or cells: CHO-K1
Procedure: The binding affinity of the compounds for human cloned 5-HT2B receptors was determined using the following assay.
CHO-K1 cells expressing cloned 5-HT2B receptor were maintained in Ultra-CHO medium containing 400 μg/ml of G418, 100 U/ml penicillin, 100 μg/ml streptomycin, 2.5 μg/ml fungizone and 1-foetal bovine serum, in 95/5% O2/CO2 at 37° C. The cells were harvested using 0.25% trypsin and were centrifuged at 800 rpm for 8 minutes. The cells were homogenised in 50 mM HEPES buffer containing 1 mM disodium EDTA and 1 mM PMSF at pH 7.4, using a Dounce homogeniser (20 strokes). The homogenate was centrifuged at 2280 rpm (1000 g) and 4° C. for 10 minutes, after which the supernatant was removed by decanting. The pellet was re-homogenised as above, and the resulting supernatant removed and combined with that already obtained. The supernatant solution was then centrifuged at 18300 rpm (40000 g) for 10 minutes at 4° C. using a Sorvall centrifuge. The supernatant was removed, and the pellet was re-suspended in 50 mM buffer at pH 7.4 using a Ultra-turrax T25 Polytron, before centrifugation again at 40000 g as above. This wash procedure was repeated, after which the membrane preparation was stored at a concentration of 1 mg/ml at −80° C. until use.
The membranes were thawed rapidly and diluted in assay buffer containing Tris-HCl (50 mM, pH 7.4), ascorbic acid (0.1°) and calcium chloride (4 mM). The membranes were homogenised to resuspend them, prior to adding 10 or 15 μg of membranes to assay wells containing [^3H]LSD (1 nM), assay buffer (50 mM Tris, 4 mM calcium chloride and 0.1° ascorbic acid) containing pargyline (10 μM), and the test compounds (1×10^−10 to 1×10^−4M). Non specific binding was determined in the presence of 100 μM 5-HT. After 30 minutes incubation at 37° C., the assay mixture was filtered through a combination of GF-C and GF-B filters, pre-soaked in 1% polyethyleneimine, using a Brandel cell harvester, and were washed three times using 50 mM Tris-HCl. Radioactivity retained on the filters was determined by liquid scintillation counting. For each test compound, the concentration that inhibited binding of [^3H]LSD by 50% was determined using curve fitting software (Prism). Kd values (concentration of LSD required to occupy 50% of the receptor binding sites at equilibrium) determined from saturation binding studies were then used to calculate inhibition dissociation constants (Ki) using the following equation: […]
This approach follows that set out in Kenakin, T. P. Pharmacologic analysis of drug-receptor interaction. Raven Press, New York, 2nd Edition.

[2] = target: T2, cloned human 5-HT2A receptor (Homo sapiens, UniProt P28223); assay: Human 5-HT2A receptor binding assay; settings: [3H]ketanserin (1 nM) displacement, CHO-K1 cell membranes; read-out: 5-HT2A pKi (converted)
T2 construct: purchased Euroscreen; host or cells: CHO-K1
Procedure: (§1) The binding affinity of ligands for human 5-HT2A and 5-HT2C receptors was determined using the following assay.
Membrane preparations from CHO-K1 cells expressing the cloned human 5-HT2A receptor were obtained (Euroscreen). The membranes were thawed rapidly and diluted in assay buffer containing Tris-HCl (50 mM, pH 7.7). The membranes were resuspended by homogenisation, prior to adding 15 μg of membranes to assay wells containing [3H]ketanserin (1 nM), assay buffer (50 mM Tris at pH 7.4) containing pargyline (10 μM), and test compounds (1×10^−10 to 1×10^−4M). Non specific binding was determined in the presence of 100 μM mianserin. After 15 minutes incubation at 37° C., the assay mixture was filtered through a combination of GF-C and GF-B filters, pre-soaked in 0.05% Brij, using a Brandel cell harvester, and were washed three times using ice cold Tris-HCl buffer (50 mM). Radioactivity retained on the filters was determined by liquid scintillation counting. For each test compound, the concentration that inhibited binding of [^3H]ketanserin by 50% was determined using curve fitting software (Prism). Kd values (concentration of ketanserin required to occupy 50% of the receptor binding sites at equilibrium) determined from saturation binding studies were then used to calculate inhibition dissociation constants (Ki) using the following equation: […]

[3] = target: T3, cloned human 5-HT2C receptor (Homo sapiens, UniProt P28335); assay: Human 5-HT2C receptor binding assay; settings: [3H]mesulergine (1 nM) displacement, CHO-K1 cell membranes; read-out: 5-HT2C pKi (converted)
T3 construct: purchased Euroscreen; host or cells: CHO-K1
T3 sequence (P28335 33-458): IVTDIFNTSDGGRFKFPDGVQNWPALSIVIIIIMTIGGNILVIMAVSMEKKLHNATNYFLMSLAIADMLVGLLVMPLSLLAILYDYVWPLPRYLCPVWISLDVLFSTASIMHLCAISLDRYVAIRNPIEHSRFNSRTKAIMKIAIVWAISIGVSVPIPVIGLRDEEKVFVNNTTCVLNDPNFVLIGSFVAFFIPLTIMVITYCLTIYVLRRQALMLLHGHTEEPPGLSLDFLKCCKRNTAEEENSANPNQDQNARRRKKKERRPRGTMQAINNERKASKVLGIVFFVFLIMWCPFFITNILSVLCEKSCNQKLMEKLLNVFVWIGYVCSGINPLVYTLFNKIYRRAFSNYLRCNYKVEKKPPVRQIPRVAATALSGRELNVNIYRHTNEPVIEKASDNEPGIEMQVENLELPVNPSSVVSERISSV
Procedure: as §1
Membrane preparations from CHO-K1 cells expressing the cloned human 5-HT2C receptor were obtained (Euroscreen). The membranes were thawed rapidly and diluted in assay buffer containing Tris-HCl (50 mM, pH 7.7), ascorbic acid (0.1%) and pargyline (10 μM). The membranes were resuspended by homogenisation, prior to adding 6 μg of membranes to assay wells containing [^3H]mesulergine (1 nM), assay buffer (50 mM Tris at pH 7.7 and 0.1% ascorbic acid) containing pargyline (10 μM), and test compounds (1×10^−10 to 1×10^−4M). Non specific binding was determined in the presence of 100 μM mianserin. After 30 minutes incubation at 37° C., the assay mixture was filtered through a combination of GF-C and GF-B filters, pre-soaked in 1% bovine serum albumin, using a Brandel cell harvester, and were washed three times using ice cold Tris-HCl buffer (50 mM). Radioactivity retained on the filters was determined by liquid scintillation counting. For each test compound, the concentration that inhibited binding of [^3H]mesulergine by 50% was determined using curve fitting software (Prism). Kd values (concentration of mesulergine required to occupy 50% of the receptor binding sites at equilibrium) determined from saturation binding studies were then used to calculate inhibition dissociation constants (Ki) using the following equation: […]

T1 sequence (P41595 whole entry): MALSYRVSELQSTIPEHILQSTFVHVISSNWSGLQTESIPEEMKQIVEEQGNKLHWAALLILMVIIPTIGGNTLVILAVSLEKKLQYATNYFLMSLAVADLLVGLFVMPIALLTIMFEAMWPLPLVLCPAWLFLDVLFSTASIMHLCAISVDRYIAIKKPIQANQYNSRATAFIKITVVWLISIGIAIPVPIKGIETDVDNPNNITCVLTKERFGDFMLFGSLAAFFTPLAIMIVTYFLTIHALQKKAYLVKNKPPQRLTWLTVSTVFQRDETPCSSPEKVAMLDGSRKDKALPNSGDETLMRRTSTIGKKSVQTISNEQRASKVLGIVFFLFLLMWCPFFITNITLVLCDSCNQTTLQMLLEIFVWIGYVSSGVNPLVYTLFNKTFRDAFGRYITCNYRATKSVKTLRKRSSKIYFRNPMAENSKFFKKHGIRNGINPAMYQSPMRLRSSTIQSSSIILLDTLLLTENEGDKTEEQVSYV
T2 sequence (P28223 whole entry): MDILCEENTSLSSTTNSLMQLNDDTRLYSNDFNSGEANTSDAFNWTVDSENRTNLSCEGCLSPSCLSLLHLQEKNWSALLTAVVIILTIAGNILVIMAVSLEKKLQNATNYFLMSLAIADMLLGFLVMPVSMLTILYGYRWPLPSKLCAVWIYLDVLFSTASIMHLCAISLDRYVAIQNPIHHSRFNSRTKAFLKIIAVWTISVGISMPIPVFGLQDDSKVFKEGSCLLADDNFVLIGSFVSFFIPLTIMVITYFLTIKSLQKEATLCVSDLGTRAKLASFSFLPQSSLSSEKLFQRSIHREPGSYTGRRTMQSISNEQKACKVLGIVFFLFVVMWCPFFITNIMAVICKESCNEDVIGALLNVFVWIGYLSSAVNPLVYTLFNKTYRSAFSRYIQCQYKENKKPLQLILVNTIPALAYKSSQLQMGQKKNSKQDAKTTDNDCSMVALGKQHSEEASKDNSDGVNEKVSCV

Row | SMILES | Ki [1] | Ki [2] | Ki [3]
1 | COc1ccc(-c2c[nH]c(NC(C)=O)n2)c2ccccc12 [Compound 103B, N-[4-(4-Methoxy-naphthalen-1-yl)-1H-imidazol-2-yl]-acetamide] | < 1000 nM | > 10000 nM | > 10000 nM
2 | COc1c(-c2cnc(NC(C)=O)[nH]2)ccc2ccccc12 [Compound 103E, N-[4-(1-Methoxy-naphthalen-2-yl)-1H-imidazol-2-yl]-acetamide] | < 100 nM | > 10000 nM | > 1000 nM
3 | CC(=O)Nc1nc(-c2cccc3ccc(Br)cc23)c[nH]1 [Compound 103G, N-[4-(7-Bromo-naphthalen-1-yl)-1H-imidazol-2-yl]-acetamide] | < 100 nM | > 1000 nM | > 1000 nM
4 | CC(=O)Nc1nc(-c2cccc3c(Br)cccc23)c[nH]1 [Compound 103H, N-[4-(5-Bromo-naphthalen-1-yl)-1H-imidazol-2-yl]-acetamide] | < 100 nM | > 1000 nM | > 1000 nM
5 | CC(=O)Nc1nc(-c2cccc3ccccc23)c(C)[nH]1 [Compound 103I, N-(5-Methyl-4-naphthalen-1-yl-1H-imidazol-2-yl)-acetamide] | < 100 nM | > 1000 nM | > 1000 nM
6 | CC(=O)Nc1nc(-c2cccc3sccc23)c[nH]1 [Compound 103L, N-(4-Benzo[b]thiophen-4-yl-1H-imidazol-2-yl)-acetamide] | < 100 nM | > 10000 nM | > 10000 nM
7 | CC(=O)Nc1nc(-c2cccc3ccccc23)c[nH]1 [Compound 103N, N-(4-Naphthalen-1-yl-1H-imidazol-2-yl)-acetamide] | < 1000 nM | > 10000 nM | > 10000 nM
8 | CC(=O)Nc1ncc(-c2sc3ccccc3c2C)[nH]1 [Compound 103O, N-[4-(3-Methyl-benzo[b]thiophen-2-yl)-1H-imidazol-2-yl]-acetamide] | < 1000 nM | > 10000 nM | > 10000 nM
9 | CC(=O)Nc1nc(-c2c(O)ccc3ccccc23)c[nH]1 [Compound 103Q, N-[4-(2-hydroxy-naphthalen-1-yl)-1H-imidazol-2-yl]-acetamide] | < 1000 nM | > 3160 nM | > 1000 nM
10 | CCOc1ccc2ccccc2c1-c1c[nH]c(N)n1 [Compound 104A, 4-(2-Ethoxy-naphthalen-1-yl)-1H-imidazol-2-ylamine] | < 1000 nM | > 1000 nM | > 100 nM
11 | COc1ccc(-c2c[nH]c(N)n2)c2ccccc12 [Compound 104B, 4-(4-Methoxy-naphthalen-1-yl)-1H-imidazol-2-ylamine] | < 100 nM | > 3160 nM | > 3160 nM
12 | COc1c(-c2cnc(N)[nH]2)ccc2ccccc12 [Compound 104E, 4-(1-Methoxy-naphthalen-2-yl)-1H-imidazol-2-ylamine] | < 100 nM | > 1000 nM | > 100 nM
13 | Nc1nc(-c2ccc(F)c3ccccc23)c[nH]1 [Compound 104F, 4-(4-Fluoro-naphthalen-1-yl)-1H-imidazol-2-ylamine] | < 100 nM | > 1000 nM | > 1000 nM
14 | Nc1nc(-c2cccc3ccc(Br)cc23)c[nH]1 [Compound 104G, 4-(7-Bromo-naphthalen-1-yl)-1H-imidazol-2-ylamine] | < 100 nM | > 316 nM | > 316 nM
15 | Nc1nc(-c2cccc3c(Br)cccc23)c[nH]1 [Compound 104H, 4-(5-Bromo-naphthalen-1-yl)-1H-imidazol-2-ylamine] | < 100 nM | > 316 nM | > 100 nM
16 | Cc1[nH]c(N)nc1-c1cccc2ccccc12 [Compound 104I, 5-Methyl-4-naphthalen-1-yl-1H-imidazol-2-ylamine] | < 100 nM | > 3160 nM | > 1000 nM
17 | CC(C)c1[nH]c(N)nc1-c1cccc2ccccc12 [Compound 104K, 5-Isopropyl-4-naphthalen-1-yl-1H-imidazol-2-ylamine] | < 100 nM | > 100 nM | > 316 nM
18 | Cc1c(-c2cnc(N)[nH]2)sc2ccccc12 [Compound 104O, 4-(3-Methyl-benzo[b]thiophen-2-yl)-1H-imidazol-2-ylamine] | < 316 nM | > 10000 nM | > 316 nM
19 | Nc1nc(-c2ccc(-c3ccccc3)cc2)c[nH]1 [Compound 104P, 4-Biphenyl-4-yl-1H-imidazol-2-ylamine] | < 316 nM | > 100 nM | > 316 nM
20 | Nc1nc(-c2cccc(-c3ccccc3)c2)c[nH]1 [Compound 108, 4-biphenyl-3-yl-1H-imidazol-2-ylamine] | < 100 nM | > 316 nM | > 100 nM
21 | Nc1ncc(-c2cccc(-c3ccccc3)c2)o1 [Compound 209A, 5-Biphenyl-3-yl-oxazol-2-ylamine] | < 316 nM | > 10000 nM | > 10000 nM
22 | Cc1cccc(-c2cccc(-c3cnc(N)o3)c2)c1 [Compound 209B, 5-(3′-Methyl-biphenyl-3-yl)-oxazol-2-ylamine] | < 316 nM | > 10000 nM | > 10000 nM
23 | Nc1ncc(-c2cccc(-c3cccc(O)c3)c2)o1 [Compound 209C, 3′-(2-Amino-oxazol-5-yl)-biphenyl-3-ol] | < 1000 nM | > 10000 nM | > 10000 nM
24 | Nc1ncc(-c2cccc(-c3ccccc3Cl)c2)o1 [Compound 209E, 5-(2′-Chloro-biphenyl-3-yl)-oxazol-2-ylamine] | < 316 nM | > 1000 nM | > 10000 nM
25 | COc1ccccc1-c1cccc(-c2cnc(N)o2)c1 [Compound 209G, 5-(2′-Methoxy-biphenyl-3-yl)-oxazol-2-ylamine trifluoroacetic acid] | < 100 nM | > 1000 nM | > 1000 nM
